In patent publication US4069331A, “N-(p-fluorobenzoyl-n-propyl)-4-piperidylamides and salts thereof” (Boehringer Ingelheim GmbH, priority 1974, dated 1978):

Tested on: adrenaline (epinephrine)
Assay: adrenaline-antagonistic activity (protection against a lethal dose of adrenaline)
Type: in vivo, Mouse (albino, NMRI)
Settings: mouse, oral, suspension in olive oil or gum arabic; 50% protection against lethal dose of adrenaline; read-out: Adrenaline-antagonism (ED50)
Description: (§1) Those compounds of the formula I wherein R is methyl, ethyl and isopropyl and the structurally most closely related compound disclosed in the prior art, namely 1-[4-(4-fluorophenyl)-4-oxobutyl]-4-benzamidopiperidine disclosed in British patent specification No. 1,345,872, were tested for adrenaline-antagonistic activity, inhibition of locomotion, inhibition of exploration and toxicity by standard pharmacological test methods, and in each case the median effective dose (ED50) or the median lethal dose (LD50), respectively, were calculated graphically from dose-activity graphs. Albino mice (NMRI) having a body weight of 20-25 gm were used as the test animals, 10 animals per dose and untreated controls. The test compounds were administered orally in suspension in olive oil or gum arabic.
1. The adrenaline-antagonistic activity was determined by the method of P.A.J. Janssen et al, Arzneimittelforschung (Drug Research) 13, 203 (1963). […] The ED50 is the dose which produces a 50% protection against a lethal dose of adrenaline (epinephrine).

Q: Which ED50 does the source give for `O=C(CCCN1CCC(NC(=O)c2ccccc2)CC1)c1ccc(F)cc1` [C6 H5, 1-[4-(4-fluorophenyl)-4-oxobutyl]-4-benzamidopiperidine, reference compound] here?
A: 3.3 mg/kg

Q: Which ED50 does the source give for `CC(=O)NC1CCN(CCCC(=O)c2ccc(F)cc2)CC1` [Example 1] here?
A: 0.06 mg/kg

Q: For `CCC(=O)NC1CCN(CCCC(=O)c2ccc(F)cc2)CC1` [Example 2, N-[3'-(p-fluoro-benzoyl)-n-propyl]-4-(propionyl-amino) -piperidine], which ED50 is on record?
A: 0.1 mg/kg

Q: With `CC(C)C(=O)NC1CCN(CCCC(=O)c2ccc(F)cc2)CC1` [Example 4, N-[3'-(p-fluoro-benzoyl)-n-propyl]-4-(isobutyryl-amino) -piperidine] as the molecule, how does the ED50 read?
A: 0.58 mg/kg

Tested on: not listed separately
Assay: inhibition of exploration (Planche-a-Trous situation)
Type: in vivo, Mouse (albino, NMRI)
Settings: mouse, oral, suspension in olive oil or gum arabic; 50% decrease of exploration
Description: as §1
2. The inhibiting effect on exploration was determined by the method of J.R. Borssin et al, Therapie 19, 571 (1964). The ED50 is the dose which produces a 50% decrease of exploration in the Planche-a-Trous situation.

Q: With `O=C(CCCN1CCC(NC(=O)c2ccccc2)CC1)c1ccc(F)cc1` [C6 H5, 1-[4-(4-fluorophenyl)-4-oxobutyl]-4-benzamidopiperidine, reference compound] as the molecule, how does the ED50 read?
A: 45 mg/kg

Q: For `CC(=O)NC1CCN(CCCC(=O)c2ccc(F)cc2)CC1` [Example 1], which ED50 is on record?
A: 8 mg/kg

Q: For `CCC(=O)NC1CCN(CCCC(=O)c2ccc(F)cc2)CC1` [Example 2, N-[3'-(p-fluoro-benzoyl)-n-propyl]-4-(propionyl-amino) -piperidine], which ED50 is on record?
A: 4.4 mg/kg

Q: With `CC(C)C(=O)NC1CCN(CCCC(=O)c2ccc(F)cc2)CC1` [Example 4, N-[3'-(p-fluoro-benzoyl)-n-propyl]-4-(isobutyryl-amino) -piperidine] as the molecule, how does the ED50 read?
A: 9 mg/kg

Tested on: not listed separately
Assay: inhibition of locomotion (open field test)
Type: in vivo, Mouse (albino, NMRI)
Settings: mouse, oral, suspension in olive oil or gum arabic; 50% attenuation of locomotion
Description: as §1
3. The inhibiting effect on locomotion was determined by the method of P.A.J. Janssen et al, Psychopharmacologia 1, 389 (1960). The ED50 is the dose which produces a 50% attenuation of locomotion in the open field test.

Q: With `O=C(CCCN1CCC(NC(=O)c2ccccc2)CC1)c1ccc(F)cc1` [C6 H5, 1-[4-(4-fluorophenyl)-4-oxobutyl]-4-benzamidopiperidine, reference compound] as the molecule, how does the ED50 read?
A: 135 mg/kg

Q: For `CC(=O)NC1CCN(CCCC(=O)c2ccc(F)cc2)CC1` [Example 1], which ED50 is on record?
A: 4 mg/kg

Q: Which ED50 does the source give for `CCC(=O)NC1CCN(CCCC(=O)c2ccc(F)cc2)CC1` [Example 2, N-[3'-(p-fluoro-benzoyl)-n-propyl]-4-(propionyl-amino) -piperidine] here?
A: 6 mg/kg

Q: With `CC(C)C(=O)NC1CCN(CCCC(=O)c2ccc(F)cc2)CC1` [Example 4, N-[3'-(p-fluoro-benzoyl)-n-propyl]-4-(isobutyryl-amino) -piperidine] as the molecule, how does the ED50 read?
A: 10 mg/kg

Tested on: not listed separately
Assay: toxicity (24 hours observation)
Settings: in vivo, mouse, oral, suspension in olive oil or gum arabic
Description: as §1
4. The toxicity was determined over an observation period of 24 hours. The LD50 was calculated by the method J.T. Litchfield and F. Wilcoxon, J. Pharm. Exp. Ther. 96, 99 (1949).

Q: For `O=C(CCCN1CCC(NC(=O)c2ccccc2)CC1)c1ccc(F)cc1` [C6 H5, 1-[4-(4-fluorophenyl)-4-oxobutyl]-4-benzamidopiperidine, reference compound], which LD50 at 24 h is on record?
A: 300 mg/kg

Q: For `CC(=O)NC1CCN(CCCC(=O)c2ccc(F)cc2)CC1` [Example 1], which LD50 at 24 h is on record?
A: 1050 mg/kg

Q: With `CCC(=O)NC1CCN(CCCC(=O)c2ccc(F)cc2)CC1` [Example 2, N-[3'-(p-fluoro-benzoyl)-n-propyl]-4-(propionyl-amino) -piperidine] as the molecule, how does the LD50 at 24 h read?
A: 1160 mg/kg

Q: For `CC(C)C(=O)NC1CCN(CCCC(=O)c2ccc(F)cc2)CC1` [Example 4, N-[3'-(p-fluoro-benzoyl)-n-propyl]-4-(isobutyryl-amino) -piperidine], which LD50 at 24 h is on record?
A: 1850 mg/kg
